According to the NIST ThermoML archive (doi:10.1021/je100832h):
Numbers after ± are expanded uncertainties.

Key:
[1] = xn = mol fraction of the nth substance listed; conditions: 101.32 kPa, Liquid, Vibrating tube method, x1 = 1
[2] = Liquid; for mass density: 101.32 kPa, Vibrating tube method; for vapor or sublimation pressure: Ebulliometric method (Recirculating still)

CCOC(C)=O [ethyl acetate] + CCCCC
[1]
Conditions | mass density [kg/m3]
291.15 K | 902.88 ± 0.73
298.15 K | 894.4 ± 0.72

CCOC(C)=O [ethyl acetate]
[2]
Conditions | mass density [kg/m3] | vapor or sublimation pressure [kPa]
291.15 K | 902.88 ± 0.73 | –
297.17 K | – | 11.89 ± 0.05
298.15 K | 894.4 ± 0.72 | –
303.35 K | – | 16.04 ± 0.06
306.25 K | – | 18.33 ± 0.06
308.86 K | – | 20.64 ± 0.07
310.67 K | – | 22.44 ± 0.07
312.53 K | – | 24.34 ± 0.08
315.44 K | – | 27.63 ± 0.08
318.15 K | 869.6 ± 0.69 | –
318.46 K | – | 31.33 ± 0.09
321.01 K | – | 34.85 ± 0.1
323.47 K | – | 38.43 ± 0.11
324.8 K | – | 40.61 ± 0.11
327.41 K | – | 44.98 ± 0.12
328.15 K | 857.17 ± 0.68 | –
329.77 K | – | 49.27 ± 0.13
331.51 K | – | 52.56 ± 0.14
333.07 K | – | 55.72 ± 0.15
335.02 K | – | 59.91 ± 0.15
336.33 K | – | 62.83 ± 0.16
337.91 K | – | 66.49 ± 0.17
339.09 K | – | 69.34 ± 0.18
340.23 K | – | 72.26 ± 0.18
341.69 K | – | 76.02 ± 0.19
343.03 K | – | 79.83 ± 0.2
344.11 K | – | 82.56 ± 0.2
345.53 K | – | 86.85 ± 0.22
346.86 K | – | 90.81 ± 0.22
348.09 K | – | 94.63 ± 0.23
348.75 K | – | 96.74 ± 0.24
349.45 K | – | 98.97 ± 0.25
349.56 K | – | 99.36 ± 0.25
349.76 K | – | 100.07 ± 0.25
349.93 K | – | 100.68 ± 0.24
350.15 K | – | 101.32 ± 0.24
351.12 K | – | 104.65 ± 0.25
351.77 K | – | 106.84 ± 0.26
352.12 K | – | 108.13 ± 0.27
352.94 K | – | 111.21 ± 0.27
353.91 K | – | 114.65 ± 0.27
354.43 K | – | 116.46 ± 0.28
354.93 K | – | 118.56 ± 0.29
355.5 K | – | 120.68 ± 0.29
355.91 K | – | 122.31 ± 0.29
356.37 K | – | 124 ± 0.3
357.35 K | – | 127.89 ± 0.3
357.92 K | – | 130 ± 0.31
358.74 K | – | 133.45 ± 0.32
359.44 K | – | 136.34 ± 0.33
360.03 K | – | 139.07 ± 0.33
360.88 K | – | 142.55 ± 0.34
361.73 K | – | 146.37 ± 0.35
362.62 K | – | 150.43 ± 0.36
363.72 K | – | 155.58 ± 0.36
364.25 K | – | 157.94 ± 0.37
364.81 K | – | 160.53 ± 0.38
365.52 K | – | 163.99 ± 0.39
366.29 K | – | 167.81 ± 0.39
367 K | – | 171.33 ± 0.4
367.64 K | – | 174.65 ± 0.41
367.98 K | – | 176.37 ± 0.41
368.83 K | – | 180.88 ± 0.42
369.49 K | – | 184.43 ± 0.43
370.07 K | – | 187.47 ± 0.44
370.69 K | – | 190.92 ± 0.44
371.5 K | – | 195.35 ± 0.45

CCCCCCCCCC [decane]
[2]
Conditions | mass density [kg/m3] | vapor or sublimation pressure [kPa]
291.15 K | 731.22 ± 0.57 | –
298.15 K | 726.2 ± 0.56 | –
318.15 K | 710.9 ± 0.55 | –
328.15 K | 703.34 ± 0.55 | –
386.86 K | – | 15.86 ± 0.06
390.21 K | – | 17.94 ± 0.06
393.85 K | – | 20.43 ± 0.06
397.62 K | – | 23.28 ± 0.07
400.9 K | – | 26.08 ± 0.08
403.65 K | – | 28.54 ± 0.08
406.2 K | – | 31.1 ± 0.09
408.52 K | – | 33.59 ± 0.09
411.2 K | – | 36.58 ± 0.1
413.6 K | – | 39.44 ± 0.1
414.92 K | – | 41.05 ± 0.11
416.83 K | – | 43.54 ± 0.11
419.01 K | – | 46.44 ± 0.12
420.74 K | – | 48.95 ± 0.12
422.51 K | – | 51.55 ± 0.13
424.11 K | – | 54.05 ± 0.13
425.85 K | – | 56.84 ± 0.14
427.5 K | – | 59.6 ± 0.14
429.13 K | – | 62.41 ± 0.15
430.69 K | – | 65.23 ± 0.16
432.29 K | – | 68.16 ± 0.16
433.61 K | – | 70.76 ± 0.17
435.15 K | – | 73.71 ± 0.17
436.57 K | – | 76.61 ± 0.18
437.52 K | – | 78.69 ± 0.18
438.92 K | – | 81.7 ± 0.19
440.19 K | – | 84.46 ± 0.2
441.29 K | – | 86.98 ± 0.2
442.23 K | – | 89.2 ± 0.21
443.35 K | – | 91.83 ± 0.21
444.37 K | – | 94.3 ± 0.21
444.8 K | – | 95.2 ± 0.22
446.16 K | – | 98.41 ± 0.22
446.55 K | – | 99.37 ± 0.23
446.97 K | – | 100.62 ± 0.23
447.3 K | – | 101.32 ± 0.23
448.21 K | – | 103.75 ± 0.24
449.29 K | – | 106.58 ± 0.24
450.33 K | – | 109.39 ± 0.25
451.31 K | – | 112.15 ± 0.25
452.1 K | – | 114.36 ± 0.26
452.89 K | – | 116.67 ± 0.26
453.87 K | – | 119.46 ± 0.27
454.7 K | – | 121.94 ± 0.28
455.13 K | – | 123.25 ± 0.28
455.92 K | – | 125.63 ± 0.28
456.82 K | – | 128.4 ± 0.29
457.59 K | – | 130.81 ± 0.29
458.4 K | – | 133.37 ± 0.3
459.16 K | – | 135.82 ± 0.3
460.02 K | – | 138.64 ± 0.31
460.42 K | – | 140 ± 0.31
461.26 K | – | 142.82 ± 0.32
462.1 K | – | 145.65 ± 0.32
463.1 K | – | 148.84 ± 0.33
463.75 K | – | 151.4 ± 0.34
464.39 K | – | 153.69 ± 0.34
465.12 K | – | 156.4 ± 0.35
465.77 K | – | 158.65 ± 0.35
466.55 K | – | 161.57 ± 0.36
467.33 K | – | 164.47 ± 0.36
468.04 K | – | 167.22 ± 0.37
468.81 K | – | 170.16 ± 0.38
469.38 K | – | 172.45 ± 0.38
470.03 K | – | 175.03 ± 0.39
470.6 K | – | 177.34 ± 0.39
471.2 K | – | 179.77 ± 0.4
471.77 K | – | 182.08 ± 0.4
472.23 K | – | 184.14 ± 0.41
472.78 K | – | 186.39 ± 0.41
473.35 K | – | 188.8 ± 0.41
474.12 K | – | 191.58 ± 0.42
474.81 K | – | 194.61 ± 0.43
475.37 K | – | 197.04 ± 0.43
